Assay results published in patent publication US20220324835A1 (Nurix Therapeutics, Inc., priority 2018, published 2022).
Read-outs that look alike come from different tables or passages of the source.

Key:
Cbl-b (residues 36-427) = Cbl-b (residues 36-427) (Homo sapiens, UniProt Q13191); experiment: Cbl-b binding assay (SPR, Biacore T200); details: 20° C., 1:1 binding model
Summary of the method: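 Steps: capture protein on NeutrAvidin surface; inject compound dilutions (8 or 10 points from 100 or 50 μM) 50 s; allow 90-180 s dissociation; regenerate 20 s with 0.3 M NaCl. Runs at 20° C in HEPES pH 7.5/100 mM NaCl/2% DMSO; 1:1 fitting.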

T-cell = experiment: IL-2 secretion from T-cells co-stimulated with anti-CD3 and anti-CD28 antibody (Biological Example 2); type: cell-based, human; details: Homo sapiens, T-cell; for fold induction at 4 µM: 4 μM Cbl-b inhibitor
Summary of the method: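 T-cells were stimulated with anti-CD3 antibody alone or with anti-CD28 antibody, in the presence or absence of Cbl-b inhibitor. IL-2 secretion or CD25 surface staining was measured, and values expressed as fold over the uninhibited baseline […].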

[1] = 0.3 μM Cbl-b inhibitor, fold change over baseline (anti-CD3/anti-CD28 stimulated T-cells without inhibitor), read-out: IL-2 secretion Anti-CD3/Anti-CD28 stimulation
[2] = 1 μM Cbl-b inhibitor, fold change over baseline (anti-CD3/anti-CD28 stimulated T-cells without inhibitor), read-out: IL-2 secretion Anti-CD3/Anti-CD28 stimulation
[3] = fold change over baseline, 0.3 μM Cbl-b inhibitor, primary human total T-cells, read-out: IL-2 secretion Anti-CD3/Anti-CD28 stimulation
[4] = fold change over baseline, 1 μM Cbl-b inhibitor, primary human total T-cells, read-out: IL-2 secretion Anti-CD3/Anti-CD28 stimulation
[5] = fold change over baseline, primary human total T-cells, read-out: IL-2 secretion Anti-CD3/Anti-CD28 stimulation
[6] = read-out: IL-2 secretion, Anti-CD3/Anti-CD28 stimulation, fold change over baseline

Chain of Cbl-b (residues 36-427) (Q13191 36-427): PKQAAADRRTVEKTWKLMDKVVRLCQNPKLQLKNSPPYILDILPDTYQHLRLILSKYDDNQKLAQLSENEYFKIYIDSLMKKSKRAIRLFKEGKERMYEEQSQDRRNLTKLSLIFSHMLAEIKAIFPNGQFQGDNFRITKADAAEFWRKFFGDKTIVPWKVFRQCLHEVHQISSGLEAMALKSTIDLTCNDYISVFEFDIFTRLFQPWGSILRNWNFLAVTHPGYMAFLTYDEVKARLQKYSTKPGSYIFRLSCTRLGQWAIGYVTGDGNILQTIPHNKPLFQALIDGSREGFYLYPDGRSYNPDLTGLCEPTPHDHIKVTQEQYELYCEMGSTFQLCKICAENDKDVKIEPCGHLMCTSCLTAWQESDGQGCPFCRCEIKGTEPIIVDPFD

| Structure (SMILES) | Kd (Cbl-b (residues 36-427)) [nM] | fold induction at 0.3 µM (T-cell; [1]) | fold induction at 1 µM (T-cell; [2]) | fold induction at 0.3 µM (T-cell; [3]) | fold induction at 1 µM (T-cell; [4]) | fold induction at 4 µM (T-cell; [5]) | fold induction at 0.3 µM (T-cell; [6]) | fold induction at 1 µM (T-cell; [6]) |
| --- | --- | --- | --- | --- | --- | --- | --- | --- |
| C[C@H](c1cc2c(c(C(F)(F)F)c1)CN(c1cccc(C3([C@@H](F)c4nncn4C)COC3)c1)C2=O)N1CCC2(CC2)C1 [Example 576, 6-((R)-1-(5-azaspiro[2.4]heptan-5-yl)ethyl)-2-(3-(3-((R)-fluoro(4-methyl-4H-1,2,4-triazol-3-yl)methyl)oxetan-3-yl)phenyl)-4-(trifluoromethyl)isoindolin-1-one] | < 100 | > 7.5 | > 7.5 |  |  |  |  |  |
| Cn1cnnc1[C@H](F)C1(c2cccc(N3Cc4c(cc(CN5CCC(F)CC5)cc4C(F)(F)F)C3=O)c2)COC1 [Example 670b, (R)-2-(3-(3-(fluoro(4-methyl-4H-1,2,4-triazol-3-yl)methyl)oxetan-3-yl)phenyl)-6-((4-fluoropiperidin-1-yl)methyl)-4-(trifluoromethyl)isoindolin-1-one] | < 100 | > 7.5 | > 7.5 |  |  |  |  |  |
| C[C@H](Sc1nncn1C)c1cccc(NC(=O)c2ccc(F)c(C3CC3)n2)c1 [Compound 91, 6-Cyclopropyl-5-fluoro-N-[3-[(1S)-1-[(4-methyl-1,2,4-triazol-3-yl)sulfanyl]ethyl]phenyl]pyridine-2-carboxamide] | 100 to 300 |  |  | 1.01 to 2.5 | 2.51 to 5 | > 7.5 |  |  |
| C[C@H](Cc1nncn1C)c1cccc(NC(=O)c2cc(C3CC3)nc(C3CC3)n2)c1 [Compound 193, (R)-2,6-dicyclopropyl-N-(3-(1-(4-methyl-4H-1,2,4-triazol-3-yl)propan-2-yl)phenyl)pyrimidine-4-carboxamide] | < 100 |  |  | 2.51 to 5 | 5 to 7.5 | > 7.5 |  |  |
| C[C@H](c1cc2c(c(C(F)(F)F)c1)CN(c1cccc(C3(C(F)(F)c4nncn4C)COC3)c1)C2=O)N1CC[C@H](F)C1 [Example 571, 2-(3-(3-(difluoro(4-methyl-4H-1,2,4-triazol-3-yl)methyl)oxetan-3-yl)phenyl)-6-((R)-1-((S)-3-fluoropyrrolidin-1-yl)ethyl)-4-(trifluoromethyl)isoindolin-1-one] | < 100 | > 7.5 | > 7.5 |  |  |  |  |  |
| CC1CCc2c1n[nH]c2C(=O)Nc1cccc([C@H](C)Cc2nncn2C)c1 (stereo partly drawn) [Compound 323, 6-Methyl-N-(3-((R)-1-(4-methyl-4H-1,2,4-triazol-3-yl)propan-2-yl)phenyl)-2,4,5,6-tetrahydrocyclopenta[c]pyrazole-3-carboxamide] | 100 to 300 |  |  | 1.01 to 2.5 | 2.51 to 5 | 5 to 7.5 |  |  |
| C[C@H](Cc1nncn1C)c1cccc(NC(=O)c2nc3c(C4CC4)cccc3[nH]2)c1 [Compound 319, 4-cyclopropyl-N-[3-[(1R)-1-methyl-2-(4-methyl-1,2,4-triazol-3-yl)ethyl]phenyl]-1H-benzimidazole-2-carboxamide] | 100 to 300 |  |  | 1.01 to 2.5 | 1.01 to 2.5 | 2.51 to 5 |  |  |
| C[C@H](Sc1nncn1C)c1cccc(NC(=O)c2cccc(C3CC3)n2)c1 [Compound 72, (S)-6-cyclopropyl-N-(3-(1-((4-methyl-4H-1,2,4-triazol-3-yl)thio)ethyl)phenyl)picolinamide] | 100 to 300 |  |  | 1.01 to 2.5 | 2.51 to 5 | 2.51 to 5 |  |  |
| C[C@H](c1cc2c(c(C(F)(F)F)c1)CN(c1cccc(C3([C@H](F)c4nncn4C)COC3)c1)C2=O)N1CCC2(CC2)C1 (stereo in doubt) [Example 575, 6-((R)-1-(5-Azaspiro[2.4]heptan-5-yl)ethyl)-2-(3-(3-((S)-fluoro(4-methyl-4H-1,2,4-triazol-3-yl)methyl)oxetan-3-yl)phenyl)-4-(trifluoromethyl)isoindolin-1-one] |  | > 7.5 | > 7.5 |  |  |  |  |  |
| CC(=O)N1CCN(c2ccc3cnc(C(=O)Nc4cccc([C@H](C)Cc5nncn5C)c4)cc3c2)CC1 [Compound 211, (R)-6-(4-acetylpiperazin-1-yl)-N-(3-(1-(4-methyl-4H-1,2,4-triazol-3-yl)propan-2-yl)phenyl)isoquinoline-3-carboxamide 2,2,2-trifluoroacetate] | 100 to 300 |  |  | 2.51 to 5 | 5 to 7.5 | > 7.5 |  |  |
| Cn1cnnc1[C@@H](F)C1(c2cccc(N3Cc4c(cc(CN5CCC(F)CC5)cc4C(F)(F)F)C3=O)c2)COC1 [Example 670a, (S)-2-(3-(3-(fluoro(4-methyl-4H-1,2,4-triazol-3-yl)methyl)oxetan-3-yl)phenyl)-6-((4-fluoropiperidin-1-yl)methyl)-4-(trifluoromethyl)isoindolin-1-one] | < 100 | 5 to 7.5 | > 7.5 |  |  |  |  |  |
| C[C@H](Cc1nncn1C)c1cc(NC2COC2)nc(N2Cc3c(cccc3C(F)(F)F)C2=O)c1 [Compound 352, 2-{4-[(2R)-1-(4-methyl-4H-1,2,4-triazol-3-yl)propan-2-yl]-6-[(oxetan-3-yl)amino]pyridin-2-yl}-4-(trifluoromethyl)-2,3-dihydro-1H-isoindol-1-one] | 100 to 300 |  |  | 1.01 to 2.5 | 1.01 to 2.5 | 5 to 7.5 |  |  |
| Cn1cnnc1CC1(c2cccc(N3Cc4c(cc(CN5CCC(C)(F)CC5)cc4C(F)(F)F)C3=O)c2)COC1 [Example 620, 6-((4-fluoro-4-methylpiperidin-1-yl)methyl)-2-(3-(3-((4-methyl-4H-1,2,4-triazol-3-yl)methyl)oxetan-3-yl)phenyl)-4-(trifluoromethyl)isoindolin-1-one] | < 100 | > 7.5 | > 7.5 |  |  |  |  |  |
| Cn1cnnc1CC1(c2cccc(N3Cc4c(cccc4C(F)(F)F)C3=O)c2)COC1 [Compound 301, 2-[3-[3-[(4-methyl-1,2,4-triazol-3-yl)methyl]oxetan-3-yl]phenyl]-4-(trifluoromethyl)isoindolin-1-one] | 301 to 1000 |  |  | 1.01 to 2.5 | 2.51 to 5 | > 7.5 |  |  |
| Cn1cnnc1CC1(c2cccc(N3Cc4c(cccc4C(F)(F)F)C3=O)c2)CC1 [Compound 299, 2-(3-(1-((4-methyl-4H-1,2,4-triazol-3-yl)methyl)cyclopropyl)phenyl)-4-(trifluoromethyl)isoindolin-1-one] | 1000 to 3000 |  |  | 2.51 to 5 | 2.51 to 5 | 5 to 7.5 |  |  |
| CN1CC2CCC(C1)N2c1cc2c(c(C(F)(F)F)c1)CN(c1cccc(C3(Cc4nncn4C)COC3)c1)C2=O [Compound 386, 2-(3-(3-((4-Methyl-4H-1,2,4-triazol-3-yl)methyl)oxetan-3-yl)phenyl)-6-(3-methyl-3,8-diazabicyclo[3.2.1]octan-8-yl)-4-(trifluoromethyl)isoindolin-1-one] |  |  |  |  |  |  | > 7.5 | > 7.5 |
| C[C@H](Cc1nncn1C)c1cccc(NC(=O)c2cc(C3CC3)cc(C(F)(F)F)n2)c1 [Compound 191, (R)-4-cyclopropyl-N-(3-(1-(4-methyl-4H-1,2,4-triazol-3-yl)propan-2-yl)phenyl)-6-(trifluoromethyl)picolinamide] | < 100 |  |  | 2.51 to 5 | 5 to 7.5 | > 7.5 |  |  |
| C[C@H](Cc1nncn1C)c1cccc(NC(=O)c2nc3c(C(F)(F)F)cccc3[nH]2)c1 [Compound 196, N-[3-[(1R)-1-methyl-2-(4-methyl-1,2,4-triazol-3-yl)ethyl]phenyl]-4-(trifluoromethyl)-1H-benzimidazole-2-carboxamide] | 100 to 300 |  |  | 2.51 to 5 | 5 to 7.5 | > 7.5 |  |  |
| CNc1cc([C@H](C)Cc2nncn2C)cc(N2Cc3c(cccc3C(F)(F)F)C2=O)n1 [Compound 363, (R)-2-(4-(1-(4-methyl-4H-1,2,4-triazol-3-yl)propan-2-yl)-6-(methylamino)pyridin-2-yl)-4-(trifluoromethyl)isoindolin-1-one] | < 100 |  |  | 1.01 to 2.5 | 1.01 to 2.5 | 5 to 7.5 |  |  |
| C[C@H](Cc1nncn1C)c1cccc(NC(=O)c2cccc(C(C)(C)C)n2)c1 [Compound 321, (R)-6-(Tert-butyl)-N-(3-(1-(4-methyl-4H-1,2,4-triazol-3-yl)propan-2-yl)phenyl)picolinamide] | 100 to 300 |  |  | 1.01 to 2.5 | 2.51 to 5 | 2.51 to 5 |  |  |
| C[C@@H]1CN(Cc2cc3c(c(C(F)(F)F)c2)CN(c2cccc(C4(Cc5nncn5C)COC4)c2)C3=O)CCO1 [Example 663b, (R)-2-(3-(3-((4-methyl-4H-1,2,4-triazol-3-yl)methyl)oxetan-3-yl)phenyl)-6-((2-methylmorpholino)methyl)-4-(trifluoromethyl)isoindolin-1-one] |  | > 7.5 | > 7.5 |  |  |  |  |  |
